Assay results: patent US7250442B2, “Dihydroindol-2-one derivatives as steroid hormone nuclear receptor modulators” (Eli Lilly and Company, priority 2003, dated 2007)

Molecular target: T1, human MR (Homo sapiens, UniProt P08235)
T1 construct: The full length human MR gene is cloned from a human kidney or human brain cDNA library; made in house; host or cells: Sf9 insect cells (baculovirus, pAcHLT transfer vector)
T1 sequence (P08235 1-984): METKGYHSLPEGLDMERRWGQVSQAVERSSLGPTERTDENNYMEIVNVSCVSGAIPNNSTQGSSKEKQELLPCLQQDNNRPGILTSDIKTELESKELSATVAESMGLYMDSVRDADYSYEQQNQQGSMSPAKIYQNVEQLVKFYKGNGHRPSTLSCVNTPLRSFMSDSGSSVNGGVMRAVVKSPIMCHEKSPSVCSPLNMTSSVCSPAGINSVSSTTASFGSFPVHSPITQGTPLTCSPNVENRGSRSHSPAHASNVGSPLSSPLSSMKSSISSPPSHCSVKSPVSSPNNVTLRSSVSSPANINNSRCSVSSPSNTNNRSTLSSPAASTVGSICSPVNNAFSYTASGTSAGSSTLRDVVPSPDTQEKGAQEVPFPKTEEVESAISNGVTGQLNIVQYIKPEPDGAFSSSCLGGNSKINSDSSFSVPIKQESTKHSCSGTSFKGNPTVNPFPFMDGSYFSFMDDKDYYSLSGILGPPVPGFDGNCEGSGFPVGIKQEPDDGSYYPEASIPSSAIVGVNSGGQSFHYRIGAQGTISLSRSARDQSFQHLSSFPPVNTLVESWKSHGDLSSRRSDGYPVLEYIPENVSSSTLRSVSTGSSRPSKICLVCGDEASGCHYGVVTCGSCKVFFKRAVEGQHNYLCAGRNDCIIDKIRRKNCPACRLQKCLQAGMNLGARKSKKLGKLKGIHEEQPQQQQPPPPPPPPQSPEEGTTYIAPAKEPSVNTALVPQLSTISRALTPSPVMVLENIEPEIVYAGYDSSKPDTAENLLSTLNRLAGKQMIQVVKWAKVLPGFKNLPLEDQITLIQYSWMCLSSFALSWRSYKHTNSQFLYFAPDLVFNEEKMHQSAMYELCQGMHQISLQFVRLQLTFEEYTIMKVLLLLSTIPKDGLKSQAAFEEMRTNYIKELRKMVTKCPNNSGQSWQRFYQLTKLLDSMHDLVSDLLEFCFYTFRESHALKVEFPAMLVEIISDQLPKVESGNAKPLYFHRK
Assay: Mineralocorticoid Receptor Binding Assay ([3H]-aldosterone displacement)
Settings: full length human MR expressed in Sf9 cells, 0.5 nM [3H]-aldosterone
Protocol: Mineralocorticoid Receptor Binding Assay:
The full length human MR gene is cloned from a human kidney or human brain cDNA library. Briefly, using synthetic oligonucleotide primers (Eli Lilly and Company, Indianapolis) directed to nucleotides 20-54 and 3700-3666 of the human MR, polymerase chain reaction (PCR) is performed under standard conditions using a human cDNA library. The PCR reaction is performed in a final volume of 50 μl containing about 1 μl of a 50× stock solution of polymerase; about 1 μl of a 50× stock solution of dNTP; about 5 μl of an appropriate PCR buffer; about 1 μl of each primer; about 5 μl of a H. kidney or H. brain cDNA library; and about 36 μl of water. The reaction is allowed to denature for about 30 seconds at 95 degrees Celsius, anneal for about 30 seconds at 55 degrees Celsius, and extend for about 5 minutes at 72 degrees Celsius, the sequence being repeated for a total of about 35 cycles. The desired PCR product (3.68 Kb) is confirmed by gel electrophoresis and subsequently cut from the gel and stored at about −20 degrees Celsius until extraction. To extract the cDNA product from the agarose gel, the QIAEX II Gel Extraction protocol (QIAGEN, Inc.) is employed according to the manufacturer's instructions. Following extraction, the MR cDNA is cloned into an appropriate cloning vector (Zero Blunt TOPO PCR Cloning Kit (Invitrogen, Inc.) and a pAcHLT-baculovirus transfer vector (B.D./Pharminogen), then expressed in SF9 insect cells, essentially according to manufacturer's instructions. Sf9 cells are grown at a scale where gram quantity cell pellets are obtained for subsequent use in the MR binding assay. Harvested cell pellets are lysed by repeated freeze-thaw cycles (about 4) in a suitable lysis buffer then centrifuged at about 1×10^3 G (with the supernatant being saved for future assays).
MR binding assays are performed in a final total volume of about 250 μl containing about 20-25 μg of protein and 0.5 nM of [^3H]-aldosterone plus varying concentrations of test compound or vehicle. The assay binding buffer consists of 30 mM sodium molybdate, 30 mM of TRIS-HCl, 5 mM sodium phosphate, 5 mM sodium pyrophosphate, and about 10% glycerol, pH=7.5.
Briefly, assays are prepared at RT in 96-well Falcon 3072 plates, each well containing 210 μl of binding buffer, 10 μl of [^3H]-aldosterone, 10 μl of test compound/vehicle, and 20 μl of the resuspended receptor protein extract. Incubations are carried out at 4 degrees Celsius with shaking for about 16 hours. 200 μl aliquots of each incubation are filtered onto Millipore HA 0.45 micron 96-well filter plates, pre-moistened with cold 30 mM TRIS-HCl. The filter plates are suctioned dry with vacuum and immediately washed 3× with cold 30 mM TRIS-HCl. The plates are then punched out and the amount of receptor-ligand complex is determined by liquid scintillation counting using 4 ml of Ready Protein Plus™ liquid scintillation cocktail.
IC50 values (defined as the concentration of test compound required to decrease [^3H]-aldosterone binding by 50%) are then determined. Ki values for each respective test compound can then be calculated by application of the Cheng-Prusoff equation as described in Cheng et al., Relationship Between The Inhibition Constant (Ki) and The Concentration of Inhibitor Which Causes 50% Inhibition (IC50) of an Enzymatic Reaction, Biochem. Pharmacol., 22: 3099-31088; (1973).

Ki	Structure (SMILES)
≤ 500 nM	COc1ccc(CN2C(=O)C(c3cc(C)c(O)c(C)c3)(c3cc(C)c(O)c(C)c3)c3ccccc32)cc1 [Example 1, 3,3-Bis-(4-hydroxy-3,5-dimethyl-phenyl)-1-(4-methoxy-benzyl)-1,3-dihydro-indol-2-one]
≤ 500 nM	COC(=O)c1ccc(CN2C(=O)C(c3cc(C)c(O)c(C)c3)(c3cc(C)c(O)c(C)c3)c3ccccc32)cc1 [Example 3, 4-[3,3-Bis-(4-hydroxy-3,5-dimethyl-phenyl)-2-oxo-2,3-dihydro-indol-1-ylmethyl]-benzoic acid methyl ester]
≤ 1000 nM	Cc1cc(C2(c3cc(C)c(O)c(C)c3)C(=O)N(C)c3ccccc32)cc(C)c1O [Example 4, 3,3-Bis-(4-hydroxy-3,5-dimethyl-phenyl)-1-methyl-1,3-dihydro-indol-2-one]
≤ 500 nM	CCCN1C(=O)C(c2cc(C)c(O)c(C)c2)(c2cc(C)c(O)c(C)c2)c2ccccc21 [Example 5, 3,3-Bis-(4-hydroxy-3,5-dimethyl-phenyl)-1-propyl-1,3-dihydro-indol-2-one]
≤ 500 nM	Cc1cc(C2(c3cc(C)c(O)c(C)c3)C(=O)N(CC3CCCCC3)c3ccccc32)cc(C)c1O [Example 6, 1-Cyclohexylmethyl-3,3-bis-(4-hydroxy-3,5-dimethyl-phenyl)-1,3-dihydro-indol-2-one]
≤ 500 nM	Cc1cc(C2(c3cc(C)c(O)c(C)c3)C(=O)N(Cc3cccc(OC(F)(F)F)c3)c3ccccc32)cc(C)c1O [Example 8, 3,3-Bis-(4-hydroxy-3,5-dimethyl-phenyl)-1-(3-trifluoromethoxy-benzyl)-1,3-dihydro-indol-2-one]
≤ 500 nM	Cc1cc(C2(c3cc(C)c(O)c(C)c3)C(=O)N(Cc3c(C)noc3C)c3ccccc32)cc(C)c1O [Example 9, 1-(3,5-Dimethyl-isoxazol-4-ylmethyl)-3,3-bis-(4-hydroxy-3,5-dimethyl-phenyl)-1,3-dihydro-indol-2-one]
≤ 500 nM	Cc1cc(C2(c3cc(C)c(O)c(C)c3)C(=O)N(Cc3ccccc3Cl)c3ccccc32)cc(C)c1O [Example 11, 1-(2-Chloro-benzyl)-3,3-bis-(4-hydroxy-3,5-dimethyl-phenyl)-1,3-dihydro-indol-2-one]
≤ 500 nM	Cc1cc(C2(c3ccc(O)c(C)c3)C(=O)N(Cc3ccccc3)c3ccccc32)ccc1O [Example 12, 1-Benzyl-3,3-bis-(4-hydroxy-3-methyl-phenyl)-1,3-dihydro-indol-2-one]
≤ 1000 nM	O=C1N(Cc2ccccc2)c2ccccc2C1(c1cc(Cl)c(O)c(Cl)c1)c1cc(Cl)c(O)c(Cl)c1 [Example 14, 1-Benzyl-3,3-bis-(3,5-dichloro-4-hydroxy-phenyl)-1,3-dihydro-indol-2-one]
≤ 500 nM	Cc1cc(C2(c3cc(C)c(O)c(C)c3)C(=O)N(Cc3ccccc3)c3ccc(Br)cc32)cc(C)c1O [Example 15, 1-Benzyl-5-bromo-3,3-bis-(4-hydroxy-3,5-dimethyl-phenyl)-1,3-dihydro-indol-2-one]
≤ 500 nM	Cc1ccc2c(c1)C(c1cc(C)c(O)c(C)c1)(c1cc(C)c(O)c(C)c1)C(=O)N2Cc1ccccc1 [Example 17, 1-Benzyl-3,3-bis-(4-hydroxy-3,5-dimethyl-phenyl)-5-methyl-1,3-dihydro-indol-2-one]
≤ 500 nM	Cc1cc(C2(c3cc(C)c(O)c(C)c3)C(=O)N(Cc3ccccc3Cl)c3ccc(Br)cc32)cc(C)c1O [Example 19, 5-Bromo-1-(2-chloro-benzyl)-3,3-bis-(4-hydroxy-3,5-dimethyl-phenyl)-1,3-dihydro-indol-2-one]
≤ 500 nM	Cc1ccccc1CN1C(=O)C(c2cc(C)c(O)c(C)c2)(c2cc(C)c(O)c(C)c2)c2cc(Br)ccc21 [Example 20, 5-Bromo-3,3-bis-(4-hydroxy-3,5-dimethyl-phenyl)-1-(2-methyl-benzyl)-1,3-dihydro-indol-2-one]
≤ 500 nM	Cc1ccc2c(c1)C(c1cc(C)c(O)c(C)c1)(c1cc(C)c(O)c(C)c1)C(=O)N2Cc1ccccc1C [Example 21, 3,3-Bis-(4-hydroxy-3,5-dimethyl-phenyl)-5-methyl-1-(2-methyl-benzyl)-1,3-dihydro-indol-2-one]
≤ 500 nM	Cc1ccc2c(c1)C(c1cc(C)c(O)c(C)c1)(c1cc(C)c(O)c(C)c1)C(=O)N2Cc1ccccc1Cl [Example 22, 1-(2-Chloro-benzyl)-3,3-bis-(4-hydroxy-3,5-dimethyl-phenyl)-5-methyl-1,3-dihydro-indol-2-one]
≤ 500 nM	Cc1ccc2c(c1)C(c1cc(C)c(O)c(C)c1)(c1cc(C)c(O)c(C)c1)C(=O)N2Cc1ccccc1C#N [Example 23, 2-[3,3-Bis-(4-hydroxy-3,5-dimethyl-phenyl)-5-methyl-2-oxo-2,3-dihydro-indol-1-ylmethyl]-benzonitrile]
≤ 500 nM	Cc1cc(C2(c3cc(C)c(O)c(C)c3)C(=O)N(Cc3ccccc3Cl)c3c(C)cccc32)cc(C)c1O [Example 24, 1-(2-Chloro-benzyl)-3,3-bis-(4-hydroxy-3,5-dimethyl-phenyl)-7-methyl-1,3-dihydro-indol-2-one]
≤ 500 nM	CCc1cccc2c1N(Cc1ccccc1Cl)C(=O)C2(c1cc(C)c(O)c(C)c1)c1cc(C)c(O)c(C)c1 [Example 25, 1-(2-Chloro-benzyl)-7-ethyl-3,3-bis-(4-hydroxy-3,5-dimethyl-phenyl)-1,3-dihydro-indol-2-one]
≤ 500 nM	Cc1cc(C2(c3cc(C)c(O)c(C)c3)C(=O)N(Cc3ccccc3Cl)c3cccc(Cl)c32)cc(C)c1O [Example 26, 4-Chloro-1-(2-chloro-benzyl)-3,3-bis-(4-hydroxy-3,5-dimethyl-phenyl)-1,3-dihydro-indol-2-one]
≤ 500 nM	Cc1cc(C2(c3cc(C)c(O)c(C)c3)C(=O)N(Cc3ccccc3Cl)c3ccccc32)cc(C)c1N (centres unmarked) [Example 35, 3-(4-Amino-3,5-dimethyl-phenyl)-1-(2-chloro-benzyl)-3-(4-hydroxy-3,5-dimethyl-phenyl)-1,3-dihydro-indol-2-one]
≤ 500 nM	Cc1cc(C2(c3ccc(O)cc3)C(=O)N(Cc3ccccc3Cl)c3ccccc32)cc(C)c1O (centres unmarked) [Example 36, 1-(2-Chloro-benzyl)-3-(4-hydroxy-3,5-dimethyl-phenyl)-3-(4-hydroxy-phenyl)-1,3-dihydro-indol-2-one]
≤ 500 nM	Cc1cc(C2(c3cc(C)c(O)c(C)c3)C(=O)N(Cc3ccc(F)cc3F)c3ccccc32)cc(C)c1O [Example 43, 1-(2,4-Difluoro-benzyl)-3,3-bis-(4-hydroxy-3,5-dimethyl-phenyl)-1,3-dihydro-indol-2-one]
